From PubChem BioAssay (NCI)
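96-well plates; 48 h exposure; 5 concentrations. Endpoints by linear interpolation between flanking doses. Not reached: highest tested concentration assigned. TGI: concentration producing complete growth inhibition.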

Experiments:
Experiment in all cases: NCI-60 cell line screen, 48 h
786-0 renal = system: 786-0 renal
A498 renal = system: A498 renal
A549 NSCLC = system: A549 NSCLC
ACHN renal = system: ACHN renal
CAKI-1 renal = system: CAKI-1 renal
CCRF-CEM leukemia = system: CCRF-CEM leukemia
DLD-1 colon = system: DLD-1 colon
DMS 273 small cell lung = system: DMS 273 small cell lung
EKVX NSCLC = system: EKVX NSCLC
HCC-2998 colon = system: HCC-2998 colon
HCT-116 colon = system: HCT-116 colon
HCT-15 colon = system: HCT-15 colon
HL-60(TB) leukemia = system: HL-60(TB) leukemia
HOP-18 NSCLC = system: HOP-18 NSCLC
HOP-62 NSCLC = system: HOP-62 NSCLC
HOP-92 NSCLC = system: HOP-92 NSCLC
HT29 colon = system: HT29 colon
IGROV1 ovarian = system: IGROV1 ovarian
K-562 leukemia = system: K-562 leukemia
KM12 colon = system: KM12 colon
KM20L2 colon = system: KM20L2 colon
LOX IMVI melanoma = system: LOX IMVI melanoma
LXFL 529 NSCLC = system: LXFL 529 NSCLC
M14 melanoma = system: M14 melanoma
M19-MEL melanoma = system: M19-MEL melanoma
MALME-3M melanoma = system: MALME-3M melanoma
MOLT-4 leukemia = system: MOLT-4 leukemia
NCI-H226 lung = system: NCI-H226 lung
NCI-H23 lung = system: NCI-H23 lung
NCI-H460 lung = system: NCI-H460 lung
OVCAR-3 ovarian = system: OVCAR-3 ovarian
OVCAR-4 ovarian = system: OVCAR-4 ovarian
OVCAR-5 ovarian = system: OVCAR-5 ovarian
OVCAR-8 ovarian = system: OVCAR-8 ovarian
RPMI-8226 leukemia = system: RPMI-8226 leukemia
RXF-631 renal = system: RXF-631 renal
SF-268 CNS = system: SF-268 CNS
SF-295 CNS = system: SF-295 CNS
SF-539 CNS = system: SF-539 CNS
SK-MEL-2 melanoma = system: SK-MEL-2 melanoma
SK-MEL-28 melanoma = system: SK-MEL-28 melanoma
SK-MEL-5 melanoma = system: SK-MEL-5 melanoma
SN12C renal = system: SN12C renal
SNB-19 CNS = system: SNB-19 CNS
SNB-75 CNS = system: SNB-75 CNS
SNB-78 CNS = system: SNB-78 CNS
SR leukemia = system: SR leukemia
SW-620 colon = system: SW-620 colon
TK-10 renal = system: TK-10 renal
UACC-257 melanoma = system: UACC-257 melanoma
UACC-62 melanoma = system: UACC-62 melanoma
UO-31 renal = system: UO-31 renal
XF 498 CNS = system: XF 498 CNS
COLO 205 colon = system: COLO 205 colon
DMS 114 small cell lung = system: DMS 114 small cell lung
NCI-H522 lung = system: NCI-H522 lung
RXF 393 renal = system: RXF 393 renal
U251 CNS = system: U251 CNS
SK-OV-3 ovarian = system: SK-OV-3 ovarian

Measured: TGI

O=C(CCn1[nH]c(=O)c(Cl)c(Cl)c1=O)NOCCCc1ccccc1
> 100 µM: 786-0 renal | A498 renal | A549 NSCLC | ACHN renal | CAKI-1 renal | CCRF-CEM leukemia | DLD-1 colon | DMS 273 small cell lung | EKVX NSCLC | HCC-2998 colon | HCT-116 colon | HCT-15 colon | HL-60(TB) leukemia | HOP-18 NSCLC | HOP-62 NSCLC | HOP-92 NSCLC | HT29 colon | IGROV1 ovarian | K-562 leukemia | KM12 colon | KM20L2 colon | LOX IMVI melanoma | LXFL 529 NSCLC | M14 melanoma | M19-MEL melanoma | MALME-3M melanoma | MOLT-4 leukemia | NCI-H226 lung | NCI-H23 lung | NCI-H460 lung | OVCAR-3 ovarian | OVCAR-4 ovarian | OVCAR-5 ovarian | OVCAR-8 ovarian | RPMI-8226 leukemia | RXF-631 renal | SF-268 CNS | SF-295 CNS | SF-539 CNS | SK-MEL-2 melanoma | SK-MEL-28 melanoma | SK-MEL-5 melanoma | SN12C renal | SNB-19 CNS | SNB-75 CNS | SNB-78 CNS | SR leukemia | SW-620 colon | TK-10 renal | UACC-257 melanoma | UACC-62 melanoma | UO-31 renal | XF 498 CNS

COc1cc(/C=C\c2ccccn2)cc(OC)c1OC
> 100 µM: 786-0 renal | A498 renal | A549 NSCLC | ACHN renal | CAKI-1 renal | CCRF-CEM leukemia | COLO 205 colon | DLD-1 colon | DMS 114 small cell lung | DMS 273 small cell lung | EKVX NSCLC | HCT-116 colon | HCT-15 colon | HL-60(TB) leukemia | HOP-18 NSCLC | HOP-62 NSCLC | HOP-92 NSCLC | HT29 colon | IGROV1 ovarian | K-562 leukemia | KM12 colon | KM20L2 colon | LOX IMVI melanoma | LXFL 529 NSCLC | M14 melanoma | M19-MEL melanoma | MALME-3M melanoma | MOLT-4 leukemia | NCI-H226 lung | NCI-H23 lung | NCI-H460 lung | NCI-H522 lung | OVCAR-3 ovarian | OVCAR-4 ovarian | OVCAR-5 ovarian | OVCAR-8 ovarian | RPMI-8226 leukemia | RXF 393 renal | RXF-631 renal | SF-268 CNS | SF-295 CNS | SF-539 CNS | SK-MEL-28 melanoma | SK-MEL-5 melanoma | SN12C renal | SNB-19 CNS | SNB-75 CNS | SNB-78 CNS | SW-620 colon | TK-10 renal | U251 CNS | UACC-257 melanoma | UACC-62 melanoma | UO-31 renal | XF 498 CNS

Nc1cc(=O)[nH]c(SC2=NC(N)CC(O)C2)n1 (stereo not given)
> 100 µM: 786-0 renal | ACHN renal | CAKI-1 renal | CCRF-CEM leukemia | COLO 205 colon | DLD-1 colon | DMS 114 small cell lung | DMS 273 small cell lung | EKVX NSCLC | HCC-2998 colon | HCT-15 colon | HOP-18 NSCLC | HOP-62 NSCLC | HOP-92 NSCLC | HT29 colon | IGROV1 ovarian | K-562 leukemia | KM12 colon | KM20L2 colon | LOX IMVI melanoma | LXFL 529 NSCLC | M14 melanoma | M19-MEL melanoma | MALME-3M melanoma | MOLT-4 leukemia | NCI-H226 lung | NCI-H23 lung | NCI-H460 lung | NCI-H522 lung | OVCAR-3 ovarian | OVCAR-4 ovarian | OVCAR-5 ovarian | OVCAR-8 ovarian | RPMI-8226 leukemia | SF-295 CNS | SF-539 CNS | SK-MEL-2 melanoma | SK-MEL-28 melanoma | SK-MEL-5 melanoma | SK-OV-3 ovarian | SN12C renal | SNB-19 CNS | SNB-75 CNS | SNB-78 CNS | SR leukemia | SW-620 colon | TK-10 renal | U251 CNS | UACC-257 melanoma | UACC-62 melanoma | UO-31 renal | XF 498 CNS
